Columns and labels:
[1] = system: velvetleaf; experiment: Test Example 2: soil surface treatment, upland pot test; assay type: in vivo, Abutilon theophrasti MEDIC.; details: active ingredient 500 g/ha
Outline: (§1)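 Pre-emergence soil-surface spray, 1 d after sowing; 1/170,000 ha pots, upland soil; WP or EC formulation, set a.i. rate, 1,500 L/ha water; visual growth-control score 0–100% at days 20–28 post-treatment.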

[2] = system: japanese bulrush; experiment: Test Example 3: paddy pot test, application under submerged conditions; assay type: in vivo, Scirpus juncoides; details: submerged application at 0.5 leaf stage, visually observed 14 days after application, 0 = non-treated, 100 = complete kill
Outline: (§2)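 Paddy soil pots; seeds sown, lightly covered; flooded 0.5–1 cm in greenhouse; wapato tubers planted day 1–2; flood raised to 3–4 cm. Submerged pipette application at 0.5 leaf / primary leaf stage. Visual score day 14, 0–100%.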

[3] = system: redroot pigweed; experiment: Test Example 2: soil surface treatment, upland pot test; assay type: in vivo, Amaranthus retroflexus L.; details: active ingredient 500 g/ha
Outline: as §1

[4] = system: japanese ribbon wapato; experiment: Test Example 3: paddy pot test, application under submerged conditions; assay type: in vivo, Sagittaria pygniaea; details: submerged application at primary leaf stage, visually observed 14 days after application, 0 = non-treated, 100 = complete kill
Outline: as §2

[5] = system: redroot pigweed; experiment: Test Example 1: foliage treatment, upland pot test; assay type: in vivo, Amaranthus retroflexus L.; details: active ingredient 500 g/ha, observed 18th to 23rd day, 0 = non-treated, 100 = complete kill
[6] = system: green foxtail; experiment: Test Example 1: foliage treatment, upland pot test; assay type: in vivo, Setaria viridis L.; details: active ingredient 500 g/ha, observed 18th to 23rd day, 0 = non-treated, 100 = complete kill
[7] = system: crabgrass; experiment: Test Example 1: foliage treatment, upland pot test; assay type: in vivo, Digitaria sanguinalis L.; details: active ingredient 500 g/ha, observed 18th to 23rd day, 0 = non-treated, 100 = complete kill
[8] = system: velvetleaf; experiment: Test Example 1: foliage treatment, upland pot test; assay type: in vivo, Abutilon theophrasti MEDIC.; details: active ingredient 500 g/ha, observed 18th to 23rd day, 0 = non-treated, 100 = complete kill
[9] = system: barnyardgrass; experiment: Test Example 3: paddy pot test, application under submerged conditions; assay type: in vivo, Echinochloa crus-galli L.; details: submerged application at 0.5 leaf stage, visually observed 14 days after application, 0 = non-treated, 100 = complete kill
Outline: as §2

[10] = system: soybean; experiment: Test Example 2: soil surface treatment, upland pot test; assay type: in vivo, Glycine max Merr.; details: active ingredient 500 g/ha
Outline: as §1

[11] = system: soybean; experiment: Test Example 1: foliage treatment, upland pot test; assay type: in vivo, Glycine max Merr.; details: crop, active ingredient 500 g/ha, observed 18th to 23rd day, 0 = non-treated, 100 = complete kill
Outline: (§3)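 Visual growth-control scores (0 = untreated, 100 = complete kill) were taken 18–23 days after foliar spraying of a wettable powder or emulsifiable concentrate, diluted in 500 L/ha water with 0.1% (v/v) spreader. Treatment leaf stages: barnyardgrass 1.3–2.8, rice 1.2–2.6, wheat 1.3–2.4, soybean 0.1–0.4.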

[12] = system: rice; experiment: Test Example 1: foliage treatment, upland pot test; assay type: in vivo, Oryza sativa L.; details: crop, active ingredient 500 g/ha, observed 18th to 23rd day, 0 = non-treated, 100 = complete kill
Outline: as §3

[13] = system: crabgrass; experiment: Test Example 2: soil surface treatment, upland pot test; assay type: in vivo, Digitaria sanguinalis L.; details: active ingredient 500 g/ha
Outline: as §1

[14] = system: barnyardgrass; experiment: as above; assay type: in vivo, Echinochloa crus-galli L.; details: active ingredient 500 g/ha
Outline: as §1

[15] = system: rice; experiment: as above; assay type: in vivo, Oryza sativa L.; details: active ingredient 500 g/ha
Outline: as §1

[16] = system: corn; experiment: as above; assay type: in vivo, Zea mays L.; details: active ingredient 500 g/ha
Outline: as §1

[17] = system: prickly sida; experiment: as above; assay type: in vivo, Sida spinosa L.; details: active ingredient 500 g/ha
Outline: as §1

[18] = system: corn; experiment: Test Example 1: foliage treatment, upland pot test; assay type: in vivo, Zea mays L.; details: crop, active ingredient 500 g/ha, observed 18th to 23rd day, 0 = non-treated, 100 = complete kill
Outline: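 Corn seeds were sown in upland field soil held in a 1/170,000 ha pot and grown to the 2.1 to 3.2 leaf stage. A wettable powder or emulsifiable concentrate of the test compound was diluted with water at 500 L/ha, given 0.1% (v/v) agricultural spreader, and sprayed onto the foliage with a small sprayer. Growth controlling degree (%) was scored visually 18th to 23rd days later, from 0 (non-treated) to 100 (complete kill).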

[19] = system: barnyardgrass; experiment: Test Example 1: foliage treatment, upland pot test; assay type: in vivo, Echinochloa crus-galli L.; details: active ingredient 500 g/ha, observed 18th to 23rd day, 0 = non-treated, 100 = complete kill
Outline: as §3

[20] = system: prickly sida; experiment: Test Example 1: foliage treatment, upland pot test; assay type: in vivo, Sida spinosa L.; details: active ingredient 500 g/ha, observed 18th to 23rd day, 0 = non-treated, 100 = complete kill
[21] = system: green foxtail; experiment: Test Example 2: soil surface treatment, upland pot test; assay type: in vivo, Setaria viridis L.; details: active ingredient 500 g/ha
Outline: as §1

[22] = system: rice (var. Nihonbare); experiment: Test Example 3: paddy pot test, transplanted rice; assay type: in vivo, Oryza sativa L.; details: applied 4th day after transplantation, visually observed 21st day after application, 0 = non-treated, 100 = complete kill
Outline: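 Visual crop-injury rating (0 = as untreated, 100 = complete kill, %) taken 21 days post-application. Treatment: formulated compound, water-diluted, pipetted into 3–4 cm flood water at a preset active-ingredient dose, 4 days after transplanting 2-leaf Nihonbare rice 3 cm deep in puddled paddy soil.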

[23] = observed day 21, 0 = non-treated, 100 = complete kill

Compound | Growth controlling degree (%) Redroot pigweed [5] [%] | Growth controlling degree (%) Green foxtail [6] [%] | Growth controlling degree (%) Crabgrass [7] [%] | Growth controlling degree (%) Velvetleaf [8] [%] | Growth controlling degree (%) Soybean [11] [%] | Growth controlling degree (%) Rice [12] [%] | Growth controlling degree (%) Corn [18] [%] | Growth controlling degree (%) Barnyardgrass [19] [%] | Growth controlling degree (%) Prickly sida [20] [%] | Growth controlling degree (%) Velvetleaf [1, 23] [%] | Growth controlling degree (%) Japanese bulrush ([2]; active ingredient 250 g/ha) [%] | Growth controlling degree (%) Redroot pigweed [3, 23] [%] | Growth controlling degree (%) Japanese ribbon wapato ([4]; active ingredient 250 g/ha) [%] | Growth controlling degree (%) Barnyardgrass ([9]; active ingredient 250 g/ha) [%] | Growth controlling degree (%) Soyabean [10, 23] [%] | Growth controlling degree (%) Crabgrass [13, 23] [%] | Growth controlling degree (%) Barnyardgrass [14, 23] [%] | Growth controlling degree (%) Rice [15, 23] [%] | Growth controlling degree (%) Corn [16, 23] [%] | Growth controlling degree (%) Prickly sida [17, 23] [%] | further results
CC(C)C(c1cnccc1C(F)(F)F)N(C)C(=O)COc1ccccc1 (stereo not drawn) [I-229] | 80 | 70 | 80 | 90 | 50 | 30 | 10 | 60 | 80 | – | – | – | – | – | – | – | – | – | – | – | Growth controlling degree (%) Velvetleaf ([1]; observed 20th to 28th day): 50%; Growth controlling degree (%) Japanese bulrush ([2]; active ingredient 500 g/ha): 95%; Growth controlling degree (%) Redroot pigweed ([3]; observed 20th to 28th day): 98%; Growth controlling degree (%) Japanese ribbon wapato ([4]; active ingredient 500 g/ha): 90%; Growth controlling degree (%) Barnyardgrass ([9]; active ingredient 500 g/ha): 100%; Growth controlling degree (%) Soyabean ([10]; observed 20th to 28th day): 10%; Growth controlling degree (%) Crabgrass ([13]; observed 20th to 28th day): 100%; Growth controlling degree (%) Barnyardgrass ([14]; observed 20th to 28th day): 100%; Growth controlling degree (%) Rice ([15]; observed 20th to 28th day): 50%; Growth controlling degree (%) Corn ([16]; observed 20th to 28th day): 100%; Growth controlling degree (%) Prickly sida ([17]; observed 20th to 28th day): 100%; Growth controlling degree (%) Green foxtail ([21]; observed 20th to 28th day): 100%; Growth controlling degree (%) Rice ([22]; active ingredient 500 g/ha): 0%
CC(C)C(c1cnccc1C(F)(F)F)N(C)C(=O)Cc1cccs1 (stereo not drawn) [I-258] | 80 | 50 | 90 | 90 | 70 | 10 | 10 | 80 | 70 | 60 | 98 | 90 | 70 | 100 | 10 | 100 | 100 | 10 | 0 | 100 | Growth controlling degree (%) Green foxtail [21, 23]: 100%; Growth controlling degree (%) Rice ([22]; active ingredient 250 g/ha): 30%
CCC(C)C(c1cnccc1C(F)(F)F)N(C)C(=O)Cc1ccccc1 (stereo not drawn) [I-260] | 40 | 50 | 80 | 90 | 90 | 40 | 80 | 80 | 95 | 70 | 98 | 70 | 60 | 100 | 20 | 98 | 80 | 10 | 30 | 95 | Growth controlling degree (%) Green foxtail [21, 23]: 100%; Growth controlling degree (%) Rice ([22]; active ingredient 250 g/ha): 10%
CCC(C)C(c1cnccc1C(F)(F)F)N(C)C(=O)COc1ccccc1 (stereo not drawn) [I-261] | 50 | 60 | 60 | 50 | 80 | 20 | 10 | 70 | 60 | 50 | 95 | 70 | 70 | 100 | 20 | 100 | 90 | 20 | 20 | 98 | Growth controlling degree (%) Green foxtail [21, 23]: 100%; Growth controlling degree (%) Rice ([22]; active ingredient 250 g/ha): 20%
CCC(CC)C(c1cnccc1C(F)(F)F)N(C)C(=O)Cc1ccccc1 (stereo not drawn) [I-262] | 70 | 70 | 80 | 90 | 80 | 35 | 60 | 80 | 95 | 60 | 95 | 70 | 30 | 98 | 20 | 100 | 20 | 50 | 40 | 90 | Growth controlling degree (%) Green foxtail [21, 23]: 95%; Growth controlling degree (%) Rice ([22]; active ingredient 250 g/ha): 0%
CCC(CC)C(c1cnccc1C(F)(F)F)N(C)C(=O)COc1ccccc1 (stereo not drawn) [I-263] | 70 | 70 | 80 | 95 | 80 | 60 | 40 | 80 | 90 | 40 | 90 | 70 | 20 | 5 | 10 | 95 | 10 | 40 | 20 | 70 | Growth controlling degree (%) Green foxtail [21, 23]: 60%; Growth controlling degree (%) Rice ([22]; active ingredient 250 g/ha): 0%
